Test results reported in patent publication US20240277722A1, “CANCER THERAPY USING A COMBINATION OF CDK7 INHIBITOR WITH AN ANTI-CANCER AGENT” (Aurigene Oncology Limited, priority 2021, published 2024).
Where “and” joins values, the source holds several entries; their conditions need not be identical. Equal values may be shown once. Read-outs that look alike come from different tables or passages of the source.

Assays:
[1] = system: MCF-7 cells; assay: MCF-7 cell proliferation, CTG reagent, 6-day treatment, single agents and combination (CompuSyn synergy analysis); assay type: cell-based
Description: The effect of 6-day compound treatment on cell proliferation was measured using CTG reagent.

[2] = system: Z-138 cells; assay: Z-138 cell proliferation, CTG reagent, 3-day treatment, single agents and combination (CompuSyn synergy analysis); assay type: cell-based
Description: Z-138 cells were treated with serial dilutions of Compound-44A (CDK7 inhibitor), serial dilutions of venetoclax individually and in combination for 3 days. The effect of 3-day compound treatment on cell proliferation was measured using CTG reagent. Percentage inhibition of cell proliferation in individual (Compound-44A, venetoclax) and combination treatments (Compound-44A+venetoclax) were analyzed using CompuSyn software to assess synergy.

CC(C)[C@H](C(=O)Nc1cc(C2CC2)[nH]n1)c1cccc(-c2ccc(NC(=O)/C=C/CN3CCOCC3)nc2)c1 (single isomer, unassigned) [Compound-44A]
% Inhibition of proliferation ([1]; Compound-44A 0.006272 nM, Day-6): −4.1% and −1.7% and 4.8%
% Inhibition of proliferation ([1]; Compound-44A 0.018817 nM, Day-6): 4.6% and 3.8%
% Inhibition of proliferation ([1]; Compound-44A 0.056450 nM, Day-6): −11.5% and −2.9% and −2.8%
% Inhibition of proliferation ([1]; Compound-44A 4.5725 nM, Day-6): 12.9% and 11.7%
% Inhibition of proliferation ([1]; Compound-44A 13.7174 nM, Day-6): 44.3% and 47.5%
% Inhibition of proliferation ([1]; Compound-44A 41.1523 nM, Day-6): 75.4% and 75.5%
% Inhibition of proliferation ([1]; Compound-44A 123.4568 nM, Day-6): 84%
% Inhibition of proliferation ([1]; Compound-44A 370.3704 nM, Day-6): 87.5% and 86.2%
% Inhibition of proliferation ([1]; Compound-44A 1111.11 nM, Day-6): 106.1%
% Inhibition of proliferation ([1]; Compound-44A 3333.333 nM, Day-6): 106.1% and 106.3%
% Inhibition of proliferation ([1]; Compound-44A 10000 nM, Day-6): 106.4% and 106.3%
% Inhibition of proliferation ([1]; Compound-44A 30000 nM, Day-6): 112.3%
inhibition at 0.0005 µM ([1]; Homo sapiens, MCF7, 144 h, Fulvestrant 0 nM + Compound-44A 0.50 nM, 6 days): 4%
inhibition at 0.0015 µM ([1]; Homo sapiens, MCF7, 144 h, Fulvestrant 0 nM + Compound-44A 1.50 nM, 6 days): 4%
inhibition at 0.041 µM ([1]; Homo sapiens, MCF7, 144 h, Fulvestrant 0 nM + Compound-44A 41.00 nM, 6 days): 74%
inhibition at 0.123 µM ([1]; Homo sapiens, MCF7, 144 h, Fulvestrant 0 nM + Compound-44A 123.00 nM, 6 days): 83%
inhibition at 0.3703 µM ([1]; Homo sapiens, MCF7, 144 h, Fulvestrant 0 nM + Compound-44A 370.30 nM, 6 days): 87%
inhibition at 18.82 pM ([1]; Homo sapiens, MCF7, Compound-44A 0.018817 nM, Day-6): 2.9%
inhibition at 0.0045725 µM ([1]; Homo sapiens, MCF7, Compound-44A 4.5725 nM, Day-6): 13.6%
inhibition at 0.0137174 µM ([1]; Homo sapiens, MCF7, Compound-44A 13.7174 nM, Day-6): 48.3%
inhibition at 0.0411523 µM ([1]; Homo sapiens, MCF7, Compound-44A 41.1523 nM, Day-6): 71.6%
inhibition at 0.123457 µM ([1]; Homo sapiens, MCF7, Compound-44A 123.4568 nM, Day-6): 81.6%
inhibition at 0.37037 µM ([1]; Homo sapiens, MCF7, Compound-44A 370.3704 nM, Day-6): 88.5%
inhibition at 1.11111 µM ([1]; Homo sapiens, MCF7, Compound-44A 1111.11 nM, Day-6): 105%
inhibition at 3.33333 µM ([1]; Homo sapiens, MCF7, Compound-44A 3333.333 nM, Day-6): 106%
inhibition at 10 µM ([1]; Homo sapiens, MCF7, Compound-44A 10000 nM, Day-6): 106%
inhibition at 30 µM ([1]; Homo sapiens, MCF7, Compound-44A 30000 nM, Day-6): 112%
synergy in inhibiting the proliferation of breast cancer cell line MCF-7 ([1]; in combination with fulvestrant): synergy
inhibition of proliferation in MCF-7 cells ([1]; single agent, serial dilutions, 6 days): dose dependent inhibition of proliferation
% Inhibition of proliferation ([2]; Compound-44A 0.0015 μM, Day-3): −1.8% and 3.5%
% Inhibition of proliferation ([2]; Compound-44A 0.0046 μM, Day-3): 5.8% and 5.6% and −3.4%
% Inhibition of proliferation ([2]; Compound-44A 0.0412 μM, Day-3): 63.6% and 62.2%
% Inhibition of proliferation ([2]; Compound-44A 0.1235 μM, Day-3): 72.1% and 74.5%
% Inhibition of proliferation ([2]; Compound-44A 0.3704 μM, Day-3): 77.2% and 77.3%
% Inhibition of proliferation ([2]; Compound-44A 1.1111 μM, Day-3): 99.3% and 98.8%
% Inhibition of proliferation ([2]; Compound-44A 3.3333 μM, Day-3): 99.9%
% Inhibition of proliferation ([2]; Compound-44A 10.0000 μM, Day-3): 99.9%
inhibition at 0.0015 µM ([2]; Homo sapiens, Z-138, 72 h, Venetoclax 0.0 μM + Compound-44A 0.0015 μM, 3 days): 2%
inhibition at 0.0412 µM ([2]; Homo sapiens, Z-138, 72 h, Venetoclax 0.0 μM + Compound-44A 0.0412 μM, 3 days, read-out: % Inhibition in proliferation): 63%
inhibition at 0.1235 µM ([2]; Homo sapiens, Z-138, 72 h, Venetoclax 0.0 μM + Compound-44A 0.1235 μM, 3 days, read-out: % Inhibition in proliferation): 73%
inhibition at 0.3704 µM ([2]; Homo sapiens, Z-138, 72 h, Venetoclax 0.0 μM + Compound-44A 0.3704 μM, 3 days, read-out: % Inhibition in proliferation): 77%
inhibition at 1.1111 µM ([2]; Homo sapiens, Z-138, 72 h, Venetoclax 0.0 μM + Compound-44A 1.1111 μM, 3 days, read-out: % Inhibition in proliferation): 99%
inhibition at 0.0412 µM ([2]; Homo sapiens, Z-138, Compound-44A 0.0412 μM, Day-3, read-out: % Inhibition of proliferation): 62.1%
inhibition at 0.1235 µM ([2]; Homo sapiens, Z-138, Compound-44A 0.1235 μM, Day-3, read-out: % Inhibition of proliferation): 72.4%
inhibition at 0.3704 µM ([2]; Homo sapiens, Z-138, Compound-44A 0.3704 μM, Day-3, read-out: % Inhibition of proliferation): 76.6%
inhibition at 1.1111 µM ([2]; Homo sapiens, Z-138, Compound-44A 1.1111 μM, Day-3, read-out: % Inhibition of proliferation): 99.4%
inhibition at 3.3333 µM ([2]; Homo sapiens, Z-138, Compound-44A 3.3333 μM, Day-3): 100%
inhibition at 10 µM ([2]; Homo sapiens, Z-138, Compound-44A 10.0000 μM, Day-3): 100%
synergy in inhibiting the proliferation of leukemia cancer cell line Z-138 ([2]; in combination with venetoclax): synergy
inhibition of proliferation in Z-138 cells ([2]; single agent, serial dilutions, 3 days): dose dependent inhibition of proliferation
